Peptide text beside a SMILES is read from it.
How the values were obtained:
[1] = tested on: collagen‐induced arthritis (CIA) model mice; experiment: Collagen‐induced arthritis (CIA) mice, prophylactic regimen; type: in vivo, DBA/1 mice; details: prophylactic administration in CIA mice
Procedure: Male DBA/1 mice (6–8 weeks old) were purchased from Huafukang Co. Ltd. (Beijing, China) and fed under specific pathogen‐free conditions. All experiments were carried out in accordance with guidelines prescribed by the Animal Care and Use Committee of Peking University People's Hospital (2019PHE047). CIA induction was established by following a previously published protocol.^[ [41] ^] Briefly, DBA/1 mice were immunized intradermally at the base of the tail with 200 µg of bovine type II collagen (CII, Chondrex) emulsified in complete Freund's adjuvant (Sigma‐Aldrich, St Louis, MO, USA) in equal volumes. Three weeks later, a booster was delivered using 100 µg CII emulsified in Freund's incomplete adjuvant. Mice were monitored for signs of arthritis after the booster immunization. Clinical score was assessed by using the following system as detailed previously:^[ [41] ^] […]
The paws from each mouse were collected and fixed in 4% paraformaldehyde (PFA) for 48 h, then scanned using a Micro‐CT scanner (Quantum FX, Caliper, USA). […] A microscopic assessment of sagittal sections was performed and histopathological changes were scored based on the following previously reported parameters:^[ [42] ^] […]

[2] = biological target: T1, murine IL‐21R (Mus musculus, UniProt Q9JHX3); experiment: SPR binding to immobilized murine IL‐21R
T1 construct: Fc region of human IgG1 (C); purchased Sino Biological
T1 sequence (Q9JHX3 20-529): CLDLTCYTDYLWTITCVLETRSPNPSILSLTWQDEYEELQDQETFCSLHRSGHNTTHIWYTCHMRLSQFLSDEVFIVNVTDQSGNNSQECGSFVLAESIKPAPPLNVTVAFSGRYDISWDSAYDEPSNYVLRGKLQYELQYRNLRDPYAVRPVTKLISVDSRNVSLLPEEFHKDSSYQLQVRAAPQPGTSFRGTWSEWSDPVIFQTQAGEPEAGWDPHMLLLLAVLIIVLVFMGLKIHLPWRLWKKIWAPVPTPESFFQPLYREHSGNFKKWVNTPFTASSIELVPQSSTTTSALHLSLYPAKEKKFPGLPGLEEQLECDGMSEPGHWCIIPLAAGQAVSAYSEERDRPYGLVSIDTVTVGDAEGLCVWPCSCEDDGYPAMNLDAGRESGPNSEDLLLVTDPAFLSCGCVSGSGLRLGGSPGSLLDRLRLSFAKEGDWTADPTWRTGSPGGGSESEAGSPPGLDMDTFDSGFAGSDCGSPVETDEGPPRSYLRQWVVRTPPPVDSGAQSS
Procedure: The binding affinities of salivaricins to IL‐6Rα or IL‐21R were assayed using the Biacore 8K instrument (GE Healthcare). Murine IL‐6Rα (20 nM, abcam) or IL‐21R ([…], Sino Biological) were immobilized on a CM5 sensor chip using standard amine‐coupling at 25 °C with PBS‐P running buffer (GE Healthcare), as described previously.^[ [39] ^] […] Regeneration was achieved by extended washing with NaOH (5 mm) after each sample injection. The dissociation constants (KD) of salivaricins were obtained by fitting the data sets to steady‐state affinity model using Biacore 8K Evaluation Software.

[3] = Table S4, immobilized mIL-21R, Steady state affinity model

SMILES	body weight [1]	Kd ([2]; Figure 5D legend, mutant experiment, analyte 12.5–800 µM, immobilized murine IL‐21R 20 nM) [µM]	Kd [2, 3] [µM]	Kd ([2]; Figure S8D, salivaricin B mutant experiment, analyte 12.5-800, immobilized murine IL-21R 20 nM) [µM]
CC[C@H](C)[C@H](NC(=O)[C@@H](NC(=O)[C@H](C)NC(=O)[C@H](Cc1ccccc1)NC(=O)[C@H](Cc1c[nH]c2ccccc12)NC(=O)CNC(=O)[C@@H](NC(=O)CNC(=O)[C@H](CCCNC(=N)N)NC(=O)[C@@H](N)CCCCN)[C@@H](C)O)[C@@H](C)O)C(=O)N[C@H](C(=O)N[C@@H](CC(=O)O)C(=O)N[C@@H](CC(=O)O)C(=O)N[C@@H](CS)C(=O)N1CCC[C@H]1C(=O)N[C@@H](CC(N)=O)C(=O)N[C@@H](CO)C(=O)N[C@H](C(=O)N[C@@H](Cc1ccccc1)C(=O)N[C@H](C(=O)N[C@@H](CS)C(=O)N[C@@H](CS)C(=O)O)C(C)C)C(C)C)[C@@H](C)O [salivaricin A2] (H-KRGTGWFATITDDCPNSVFVCC-OH)	without affecting body weight	29.4	12.6	–
CC[C@H](C)[C@H](NC(=O)[C@@H](NC(=O)CNC(=O)CNC(=O)CN)C(C)C)C(=O)N[C@@H](CCC(N)=O)C(=O)N[C@H](C(=O)N[C@H](C(=O)N[C@@H](CO)C(=O)N[C@@H](Cc1c[nH]cn1)C(=O)N[C@@H](CCC(=O)O)C(=O)N[C@@H](CS)C(=O)N[C@@H](CCCNC(=N)N)C(=O)N[C@@H](CCSC)C(=O)N[C@@H](CC(N)=O)C(=O)N[C@@H](CO)C(=O)N[C@@H](Cc1c[nH]c2ccccc12)C(=O)N[C@@H](CCC(N)=O)C(=O)N[C@@H](Cc1ccccc1)C(=O)N[C@@H](CC(C)C)C(=O)N[C@@H](Cc1ccccc1)C(=O)N[C@H](C(=O)N[C@@H](CS)C(=O)N[C@@H](CS)C(=O)N[C@@H](CO)C(=O)O)[C@@H](C)O)[C@@H](C)CC)[C@@H](C)O [salivaricin B] (H-GGGVIQTISHECRMNSWQFLFTCCS-OH)	without affecting body weight	–	10.1	12.6

From paper PMC9596850, “Tonsillar Microbiome‐Derived Lantibiotics Induce Structural Changes of IL‐6 and IL‐21 Receptors and Modulate Host Immunity” (Advanced Science, 2022)
